Experimental data as given in patent US11247998B2, “Piperazine heteroaryl derivative, preparation method therefor and use of same in medicine” (priority 2017, dated 2022).

Tests used:
[1] = tested on: HBV DNA replication in HepG2.2.15 cells; experiment: In vitro anti-HBV activity test (quantitative assay of intracellular HBV DNA), HepG2.2.15 cells, quantitative PCR; format: cell-based, hepatitis B virus (HBV); conditions: Hepatitis B virus, HBV DNA by quantitative PCR; for EC50: compound treatment Day 2 to Day 8; for Emax: read-out: Emax (effect value of the compound to maximally inhibit HBV DNA replication)
Protocol: In vitro anti-HBV activity test of the compound of the present invention (quantitative assay of intracellular HBV DNA)
HepG2.2.15 cell is a stable expression cell line that has integrated HBV genome.
Virus particles containing HBV DNA can be synthesized by replication, transcription and encapsidation in the cells, and then secreted. In this study, the quantitative analysis of HBV DNA produced by HepG2.2.15 in vitro proliferation was carried out by quantitative PCR method, thereby determining the activity of the compound of the present invention on inhibiting the HBV DNA replication by inhibiting the assembly of HBV capsid protein.
HepG2.2.15 cells were cultured in DMEM/high glucose medium (10% FBS, […] G418) and passaged every three days. On the day of the experiment, a cell suspension was prepared with fresh cell culture medium, and incubated in a 96-well plate (Corning, #3599) at 40,000 cells/well, at 5% carbon dioxide, 37° C. On Day 2, the compound was dissolved in pure DMSO at a concentration of 20 mM, and then the first concentration of 2 mM was formulated with DMSO, and diluted in 4-fold concentration gradient to 8 concentrations. A control well was added with 90 μl of DMSO. The compound solution was diluted 200-fold with DMEM/high glucose medium. The cell culture plate inoculated on Day 1 was taken out. The medium in the wells was removed by a negative pressure suction device, and the formulated medium containing the compound at each concentration was added respectively to each well at 200 μl/well. The plate was incubated at 37° C. for 72 hours. On Day 5, the medium of the cultured cells was replaced with fresh medium containing the same compound in the same way as Day 2, and then the plate was incubated at 37° C. for 72 hours. On Day 8, the cell culture plate was taken out, centrifuged at 300 g for 3 minutes, and the culture supernatant was collected at 200 μl/well. HBV DNA was extracted from the cell culture supernatant with Qiagen automatic DNA extraction device, and the specific method referred to the instructions of the reagents and instruments. Finally, the extracted DNA was eluted with DNA elution buffer at 100 μl/well. The extracted DNA was subjected to quantitative PCR analysis of HBV DNA using Hepatitis B virus nucleic acid quantitative detection kit (Triplex International Biosciences Co., Ltd.), and the specific method referred to the instruction of the kit. The quantitative standard curve was obtained with the standard sample provided in the kit, and the experiments were performed in parallel. Quantitative conversion of each sample was carried out according to the standard curve. Finally, the EC50 value of the compound was calculated with Graphpad Prism software according to each concentration of the compound and the corresponding DNA value.
The in vitro activity of the compound of the present invention on inhibiting the HBV DNA replication by inhibiting the assembly of HBV capsid protein was determined by the above experiment.

[2] = Effect on in vitro proliferation of HepG2 cells (CellTiter-Glo); format: cell-based; conditions: human; HepG2 cells, 72 hours, CellTiter-Glo
Protocol: Test Example 2. Effect of the Compound of the Present Invention on In Vitro Proliferation of HepG2 Cells
HepG2 cells in logarithmic growth phase were taken and digested with trypsin to prepare a cell suspension, which was incubated in a 96-well plate (transparent bottom white 96-well plate, PerkinElmer) at 6,000 cells/well, at 5% carbon dioxide, 37° C. for 16-20 hours. On Day 2, the compound was dissolved in pure DMSO at a concentration of 20 mM. The compound was diluted in 3-fold concentration gradient using an automatic pipetting station (Bravo), 8 concentration points for each compound, and the control well was DMSO. The compound formulated in DMSO at each concentration point was diluted 200-fold with EMEM (containing 10% FBS) medium. The cell culture plate inoculated on Day 1 was taken out. The medium in the wells was removed by a negative pressure suction device, and the formulated medium containing the compound at each concentration was added respectively to each well at 100 μl/well. The plate was incubated at 37° C. for 72 hours. On Day 5, the 96-well cell culture plate was taken out, and freshly formulated CellTiter Glo was added to each well at 100 μl/well. The 96-well plate was left to stand for 5-10 minutes, the bottom was then sealed with a white bottom sealing film (PerkinElmer). The plate was placed in the microplate reader to measure the luminescence signal. The CC50 value of the compound was calculated with Graphpad Prism software according to each concentration of the compound and the corresponding proliferation inhibition signal value.
The inhibition effect of the compound of the present invention on in vitro proliferation of HepG2 cells was determined by the above experiment.

[3] = Pharmacokinetics assay in rats after intragastrical administration (LC/MS/MS of plasma); format: in vivo; conditions: both sexes, rat, plasma, po, SD rats, 2 mg/kg
Protocol: Pharmacokinetics assay of the compound of the present invention
Rats were used as test animals. The drug concentration in plasma at different time points was determined by LC/MS/MS method after intragastrical administration of the compound of Example 1, the compound of Example 2, the compound of Example 4, the compound of Example 6, the compound of Example 7, the compound of Example 11, the compound of Example 39, the compound of Example 42, the compound of Example 44, the compound of Example 45 and the compound of Example 47 to rats. The pharmacokinetic behavior and property of the compound of the present invention were studied and evaluated in rats.
44 Healthy adult SD rats (half male and half female, 4 rats/group) were purchased from Shanghai Jiesijie Laboratory Animal Co., LTD, with Certificate No.: SCXK (Shanghai) 2013-0006.
A certain amount of the test compound was weighed, and added with 5% by volume of DMSO, 5% by volume of tween 80 and 90% by volume of normal saline to prepare a 0.2 mg/mL colorless, clear and transparent solution.
After an overnight fast, SD rats were administrated intragastrically with the test compound at an administration dose of 2.0 mg/kg and an administration volume of 10.0 mL/kg.
The rats were intragastrically administrated the compound of Example 1, the compound of Example 2, the compound of Example 4, the compound of Example 6, the compound of Example 7, the compound of Example 11, the compound of Example 39, the compound of Example 42, the compound of Example 44, the compound of Example 45 and the compound of Example 47. 0.1 ml of blood was taken from the orbit before administration and at 0.5, 1.0, 2.0, 4.0, 6.0, 8.0, 11.0 and 24.0 hours after administration. The samples were stored in heparinized tubes, and centrifuged for 10 minutes at 3500 rpm to separate the blood plasma. The plasma samples were stored at −20° C. The rats were fed two hours after administration.
The content of the test compound in the plasma of rats after intragastrical administration of the test compound at different concentrations was determined: 25 μL of rat plasma at each time after administration was taken, added with 40 μL of the internal standard solution of camptothecin (100 ng/mL) and 200 μL of acetonitrile, vortex-mixed for 5 minutes, and centrifuged for 10 minutes (4000 rpm). 0.2 μL of the supernatant was taken from the plasma samples for LC/MS/MS analysis.

SMILES: C[C@H]1Cn2cnc(C(=O)NC3(C)CC3)c2CN1C(=O)Nc1ccc(F)c(C#N)c1 [Example 48, (S)—N^7-(3-Cyano-4-fluorophenyl)-6-methyl-N^1-(1-methylcyclopropyl)-5,6-dihydroimidazo[1,5-α]pyrazine-1,7(8H)-dicarboxamide]
- EC50 [1]: 93 nM
- Emax [1]: 98%
- CC50 at 72 h [2]: > 100000 nM

SMILES: C[C@H]1Cn2cnc(C(=O)NC3(C)COC3)c2CN1C(=O)Nc1cc(F)c(F)c(F)c1 [Example 13, (S)-6-Methyl-N^1-(3-methyloxetan-3-yl)-N^7-(3,4,5-trifluorophenyl)-5,6-dihydroimidazo[1,5-α]pyrazine-1,7(8H)-dicarboxamide]
- EC50 [1]: 35 nM
- Emax [1]: 100%
- CC50 at 72 h [2]: > 100000 nM

SMILES: C[C@H]1Cn2ncc(C(=O)N[C@H](C)C(F)(F)F)c2CN1C(=O)Nc1ccc(F)c(C#N)c1 [Example 15, (S)—N^5-(3-Cyano-4-fluorophenyl)-6-methyl-N^3-((R)-1,1,1-trifluoropropan-2-yl)-6,7-dihydropyrazolo[1,5-α]pyrazine-3,5(4H)-dicarboxamide]
- EC50 [1]: 29 nM
- Emax [1]: 100%
- CC50 at 72 h [2]: > 100000 nM

SMILES: C[C@H]1Cn2ncc(C(=O)NC(C)(C)C)c2CN1C(=O)Nc1ccc(F)c(F)c1 [Example 8, (S)—N^3-(Tert-butyl)-N^5-(3,4-difluorophenyl)-6-methyl-6,7-dihydropyrazolo[1,5-α]pyrazine-3,5(4H)-dicarboxamide]
- EC50 [1]: 15 nM
- Emax [1]: 100%
- CC50 at 72 h [2]: > 100000 nM

SMILES: C[C@H]1Cn2ncc(C(=O)NC3(C)COC3)c2CN1C(=O)Nc1cc(F)c(F)c(F)c1 [Example 14, (S)-6-Methyl-N^3-(3-methyloxetan-3-yl)-N^5-(3,4,5-trifluorophenyl)-6,7-dihydropyrazolo[1,5-a]pyrazine-3,5(4H)-dicarboxamide]
- EC50 [1]: 44 nM
- Emax [1]: 100%
- CC50 at 72 h [2]: > 100000 nM

SMILES: C[C@H](NC(=O)c1ncn2c1CN(C(=O)Nc1ccc(F)c(F)c1)[C@@H](C)C2)C(F)(F)F [Example 41, (S)—N^7-(3,4-Difluorophenyl)-6-methyl-N^1—((S)-1,1,1-trifluoropropan-2-yl)-5,6-dihydroimidazo[1,5-α]pyrazine-1,7(8H)-dicarboxamide]
- EC50 [1]: 24 nM
- Emax [1]: 100%
- CC50 at 72 h [2]: > 100000 nM

SMILES: C[C@@H](NC(=O)c1cnn2c1CN(C(=O)Nc1ccc(F)c(C#N)c1)CC2)C(F)(F)F [Example 9, (R)—N^5-(3-Cyano-4-fluorophenyl)-N^3-(1,1,1-trifluoropropan-2-yl)-6,7-dihydropyrazolo[1,5-α]pyrazine-3,5(4H)-dicarboxamide]
- EC50 [1]: 28 nM
- Emax [1]: 100%
- CC50 at 72 h [2]: > 100000 nM

SMILES: C[C@H]1Cn2ncc(C(=O)NC(C)(C)C)c2CN1C(=O)Nc1cc(F)c(F)c(F)c1 [Example 10, (S)—N^3-(Tert-butyl)-6-methyl-N^5-(3,4,5-trifluorophenyl)-6,7-dihydropyrazolo[1,5-α]pyrazine-3,5(4H)-dicarboxamide]
- EC50 [1]: 29 nM
- Emax [1]: 100%
- CC50 at 72 h [2]: > 100000 nM

SMILES: Cc1cc(NC(=O)N2Cc3c(C(=O)N[C@H](C)C(F)(F)F)nnn3C[C@@H]2C)ccc1F [Example 40, (S)—N^5-(4-Fluoro-3-methylphenyl)-6-methyl-N^3-((R)-1,1,1-trifluoropropan-2-yl)-6,7-dihydro-[1,2,3]triazolo[1,5-α]pyrazine-3,5(4H)-dicarboxamide]
- EC50 [1]: 20 nM
- Emax [1]: 100%
- CC50 at 72 h [2]: > 100000 nM

SMILES: C[C@H]1Cn2cnc(C(=O)NC(C)(C)C)c2CN1C(=O)Nc1ccc(F)c(F)c1 [Example 12, (S)—N^1-(Tert-butyl)-N^7-(3,4-difluorophenyl)-6-methyl-5,6-dihydroimidazo[1,5-α]pyrazine-1,7-(8H)-dicarboxamide]
- EC50 [1]: 32 nM
- Emax [1]: 100%
- CC50 at 72 h [2]: > 100000 nM

SMILES: Cc1cc(NC(=O)N2Cc3c(C(=O)N[C@H](C)C(F)(F)F)ncn3C[C@@H]2C)ccc1F [Example 58, (S)—N^7-(4-Fluoro-3-methylphenyl)-6-methyl-N^1-((R)-1,1,1-trifluoropropan-2-yl)-5,6-dihydroimidazo[1,5-α]pyrazine-1,7(8H)-dicarboxamide]
- EC50 [1]: 15 nM
- Emax [1]: 100%
- CC50 at 72 h [2]: > 100000 nM

SMILES: C[C@@H](NC(=O)c1ncn2c1CN(C(=O)Nc1cc(F)c(F)c(F)c1)CC2)C(F)(F)F [Example 1, (R)—N^7-(3,4,5-Trifluorophenyl)-N^1-(1,1,1-trifluoropropan-2-yl)-5,6-dihydroimidazo[1,5-α]pyrazine-1,7(8H)-dicarboxamide]
- Vd/F ([3]; read-out: Apparent distribution volume Vz/F): 2.36 ± 0.245 L/kg
- AUC ([3]; read-out: Area under curve AUC): 14400 ± 3010 ng·h/mL
- bioavailability ([3]; read-out: Bioavailability (%) F %): 119%
- CL/F ([3]; read-out: Clearance CLz/F): 2.39 ± 0.5 mL/min/kg
- half-life ([3]; read-out: Half-life T1/2 (converted)): 11.7 ± 2.3 h
- Cmax ([3]; read-out: Plasma concentration Cmax): 640 ± 102 ng/mL
- MRT ([3]; read-out: Residence time MRT): 17.4 ± 3 h

SMILES: C[C@H]1Cn2cnc(C(=O)N3CCCC3)c2CN1C(=O)Nc1ccc(F)c(F)c1 [Example 59, (S)—N-(3,4-Difluorophenyl)-6-methyl-1-(pyrrolidine-1-carbonyl)-5,6-dihydroimidazo[1,5-α]pyrazine-7(8H)-carboxamide, reference compound]
- EC50 [1]: 5270 nM
- Emax [1]: 90%
